Experiments:
FGFR-1 = target: T1, FGFR-1 (Homo sapiens, UniProt P11362); assay: FGFR tyrosine kinase inhibition (DELFIA); type: biochemical; conditions: kinase domain at 20 nM
T1 construct: The kinase domains from FGFR-1, VEGFR-2, Lck, and PDGF were purified from baculoviral vectors expression systems; made in house; host or cells: baculovirus expression system (insect cells)
Text: (§1) Full-length cDNAs for the mouse PDGF-β and human FGF-1 (flg) receptor tyrosine kinases were obtained from J. Escobedo and prepared as described in J. Biol. Chem., 1991;262:1482-1487. PCR primers were designed to amplify a fragment of DNA that codes for the intracellular tyrosine kinase domain. The fragment was inserted into a baculovirus vector, cotransfected with AcMNPV DNA, and the recombinant virus isolated. SF9 insect cells were infected with the virus to overexpress the protein, and the cell lysate was used for the assay. […] Filters were washed three times with 15% TCA containing 100 mM sodium pyrophosphate, and the radioactivity retained on the filters counted in a Wallac 1250 Betaplate reader. Nonspecific activity was defined as radioactivity retained on the filters following incubation of samples with buffer alone (no enzyme). […]
(§2) The inhibition activity of the compounds in Examples 7 and 8 were also evaluated using the Dissociated Enhanced Lanthanide Fluoroimmuno Assay (DELFIA) (Frank Loganzo and Carolyn Harady. A sensitive, time-resolved fluorometric assay for the detection of inhibitors of phosphotyrosine kinases. American Biotechnology Laboratory, December 1998). […] One hundred microliter DELFIA Enhancement Solution (EG&G Wallac) was added and time-resolved fluorescence of the reactions determined using a VICTOR2 1420 multilable counter (EG&G Wallac). […]

PDGF = target: T2, PDGF (Mus musculus, UniProt P05622); assay: PDGF receptor tyrosine kinase inhibition (DELFIA); type: biochemical; conditions: kinase domain at 20 nM
T2 construct: The kinase domains from FGFR-1, VEGFR-2, Lck, and PDGF were purified from baculoviral vectors expression systems; made in house; host or cells: baculovirus expression system (insect cells)
T2 sequence (P05622 599-961 limits assumed): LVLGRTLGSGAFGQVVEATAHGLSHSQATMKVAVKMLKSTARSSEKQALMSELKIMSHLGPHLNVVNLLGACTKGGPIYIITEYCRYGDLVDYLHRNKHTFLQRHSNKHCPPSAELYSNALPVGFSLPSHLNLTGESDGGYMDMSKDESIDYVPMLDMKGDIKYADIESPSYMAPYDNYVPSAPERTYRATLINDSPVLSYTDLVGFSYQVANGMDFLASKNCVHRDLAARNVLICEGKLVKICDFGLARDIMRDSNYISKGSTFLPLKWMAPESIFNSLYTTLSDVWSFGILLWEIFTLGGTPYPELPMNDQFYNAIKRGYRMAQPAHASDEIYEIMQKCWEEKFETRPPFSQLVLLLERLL
Text: as §1, §2

c-Src = target: T3, c-Src (Homo sapiens, UniProt P12931); assay: c-Src kinase inhibition (DELFIA); type: biochemical; conditions: c-Src at 3 units per reaction
T3 construct: purchased Upstate Biotechnology, Lake Placid, N.Y
T3 sequence (P12931 whole entry, species assumed): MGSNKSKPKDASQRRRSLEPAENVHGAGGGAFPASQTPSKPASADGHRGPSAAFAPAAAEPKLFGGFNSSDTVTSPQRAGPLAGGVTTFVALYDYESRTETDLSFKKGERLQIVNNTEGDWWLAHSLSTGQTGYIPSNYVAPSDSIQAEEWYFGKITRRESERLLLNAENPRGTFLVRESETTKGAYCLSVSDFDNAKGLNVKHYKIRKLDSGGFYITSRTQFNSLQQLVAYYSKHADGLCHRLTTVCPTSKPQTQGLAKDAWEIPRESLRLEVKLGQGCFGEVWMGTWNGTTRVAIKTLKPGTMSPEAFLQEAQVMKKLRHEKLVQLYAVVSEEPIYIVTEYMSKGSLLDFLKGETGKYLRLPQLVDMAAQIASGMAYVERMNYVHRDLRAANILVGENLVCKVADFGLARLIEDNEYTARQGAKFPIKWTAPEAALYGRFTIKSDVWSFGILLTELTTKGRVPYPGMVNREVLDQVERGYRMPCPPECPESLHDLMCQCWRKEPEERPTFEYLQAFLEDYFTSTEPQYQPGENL
Procedure: c-Src kinase is purified from baculovirus infected insect cell lysates using an antipeptide monoclonal antibody directed against the N-terminal amino acids (amino acids 2-17) of c-Src. The antibody, covalently linked to 0.65 μm latex beads, is added to a suspension of insect cell lysis buffer comprised of 150 mM NaCl, 50 mM Tris pH 7.5, 1 mM DTT, 1% NP-40, 2 mM EGTA, 1 mM sodium vanadate, 1 mM PMSF, 1 μg/mL each of leupeptin, pepstatin, and aprotinin. Insect cell lysate containing c-Src protein is incubated with these beads for 3 to 4 hours at 4° C. with rotation. […] The filters are then punched, counted in a liquid scintillation counter, and the data examined for inhibitory activity in comparison to a known inhibitor such as erbstatin. […]
as §2

Lck = target: T4, Lck (Homo sapiens, UniProt P06239); assay: Lck kinase inhibition (DELFIA); type: biochemical; conditions: kinase domain at 20 nM
T4 construct: The kinase domains from FGFR-1, VEGFR-2, Lck, and PDGF were purified from baculoviral vectors expression systems; made in house; host or cells: baculovirus expression system (insect cells)
T4 sequence (P06239 245-498 limits assumed, species assumed): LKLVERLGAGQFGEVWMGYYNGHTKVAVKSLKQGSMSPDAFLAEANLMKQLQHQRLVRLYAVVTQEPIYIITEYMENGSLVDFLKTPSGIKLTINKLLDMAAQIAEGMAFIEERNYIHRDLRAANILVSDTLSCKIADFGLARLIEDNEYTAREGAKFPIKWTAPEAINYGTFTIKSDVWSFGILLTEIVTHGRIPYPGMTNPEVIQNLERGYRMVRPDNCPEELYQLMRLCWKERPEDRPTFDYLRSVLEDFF
Procedure: (§3) The inhibition activity of the compounds in Examples 7 and 8 were also evaluated using the Dissociated Enhanced Lanthanide Fluoroimmuno Assay (DELFIA) (Frank Loganzo and Carolyn Harady. A sensitive, time-resolved fluorometric assay for the detection of inhibitors of phosphotyrosine kinases. American Biotechnology Laboratory, December 1998). DELFIA plates (EG&G Wallac, Gaithersburg, Md.) were coated overnight with Poly Glu Tyr (4:1) (Sigma, St. Louis, Mo.) overnight at room temperature, washed (DELFIA wash reagent, EG&G Wallac), and spotted with 1 μL inhibitor dilution or DMSO carrier control per well. In some cases, kinase was autophosphorylated prior to analysis by incubating 45 minutes at 4° C. in the presence of 4 mM ATP and 25 mM MgCl2. A typical 100 μL kinase assay reaction contained 20 mM Tris (pH 7.5), 20 mM MgCl2, 50 mM NaCl, 5 mM DTT, 200 μM ATP, and protease inhibitors (Mini EDTA-free protease inhibitor cocktail tablets, Boehringer Mannheim, Indianapolis, Ind.), 40 μM ATP, and an appropriate concentration of inhibitor. The reaction was allowed to continue for 30 minutes at room temperature. […] One hundred microliter DELFIA Enhancement Solution (EG&G Wallac) was added and time-resolved fluorescence of the reactions determined using a VICTOR2 1420 multilable counter (EG&G Wallac). […]

VEGFR-2 = target: T5, VEGFR-2 (Homo sapiens, UniProt P35968); assay: VEGFR-2 tyrosine kinase inhibition (DELFIA); type: biochemical; conditions: kinase domain at 20 nM; read-out: (VEGF-2) (IC50 = μM)
T5 construct: The kinase domains from FGFR-1, VEGFR-2, Lck, and PDGF were purified from baculoviral vectors expression systems; made in house; host or cells: baculovirus expression system (insect cells)
T5 sequence (P35968 834-1162 limits assumed, species assumed): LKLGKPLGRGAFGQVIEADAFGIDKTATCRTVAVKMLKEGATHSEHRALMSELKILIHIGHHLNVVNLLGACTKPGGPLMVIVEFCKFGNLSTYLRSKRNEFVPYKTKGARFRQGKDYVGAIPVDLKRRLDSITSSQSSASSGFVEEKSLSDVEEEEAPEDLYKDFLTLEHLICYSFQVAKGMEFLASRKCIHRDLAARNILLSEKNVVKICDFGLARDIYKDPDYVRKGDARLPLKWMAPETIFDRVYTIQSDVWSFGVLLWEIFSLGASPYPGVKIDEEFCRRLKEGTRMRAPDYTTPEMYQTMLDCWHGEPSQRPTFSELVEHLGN
Procedure: as §3

T1 sequence (P11362 478-767 limits assumed): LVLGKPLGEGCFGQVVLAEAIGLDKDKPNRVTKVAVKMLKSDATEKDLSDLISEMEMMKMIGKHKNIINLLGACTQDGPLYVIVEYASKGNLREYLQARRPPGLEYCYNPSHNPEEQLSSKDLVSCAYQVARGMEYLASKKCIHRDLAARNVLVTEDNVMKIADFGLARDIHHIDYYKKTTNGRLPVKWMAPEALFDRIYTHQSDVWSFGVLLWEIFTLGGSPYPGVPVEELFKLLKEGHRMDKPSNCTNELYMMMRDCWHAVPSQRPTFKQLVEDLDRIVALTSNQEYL

Row | IC50 (FGFR-1) [µM] | IC50 (PDGF) [µM] | melting point | IC50 (c-Src) [µM] | Ki (Lck) [µM] | IC50 (VEGFR-2) [µM] | SMILES
1 | 6.04 | > 50 | 120 to 121 °C (dec.) | 10.6 |  |  | CCN(CC)CCCCNc1nnc2cc(-c3cc(OC)cc(OC)c3)c(=O)n(CC)c2n1 [Example 7, 3-(4-Diethylamino-butylamino)-7-(3,5-dimethoxy-phenyl)-5-ethyl-5H-pyrido[2,3-e]-1,2,4-triazin-6-one]
2 | 1.22 | > 50 |  | > 4 | > 4 | 0.35 | CCn1c(=O)c(-c2cc(OC)cc(OC)c2)cc2nnc(Nc3ccncc3)nc21 [Example 8, 7-(3,5-Dimethoxy-phenyl)-5-ethyl-3-(pyridin-4-ylamino)-5H-pyrido[2,3-e]-1,2,4-triazin-6-one]
